This passage reports GI50 and TGI results from PubChem BioAssay (NCI).

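Test compounds were applied to cells in 96-well plates for 48 hours at 5 doses. The concentration for 50% growth inhibition is given as GI50. Definition used: TGI = concentration required for complete inhibition of growth.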

What all share (test): NCI-60 cell line screen, 48 h
The test system of test [1] is RXF 393 renal.
Test [2] relates to UO-31 renal.
Test [3] concerns OVCAR-3 ovarian.
Test [4] has as its system SK-MEL-5 melanoma.
For test [5], the system named is SR leukemia.
Test [6] concerns K-562 leukemia.
The test system of test [7] is DU-145 prostate.
In test [8] the test system is OVCAR-8 ovarian.
Test [9] concerns HCT-15 colon.
Test [10] deals with NCI-H226 lung.

In the case of `Cc1c2c(nn1C)CSCc1cc(n(C)n1)CSc1cc(c3ccccc3c1)OCCCc1c(C(=O)O)n(C)c3c-2c(Cl)ccc13`, the GI50 is 1.29 µM in test [1]; 5.07 µM in test [2]; 2700 nM in test [3]; 2.2 µM in test [4]; 470 nM in test [5]; 3.78 µM in test [6]. The GI50 is 4.52 µM in test [7], 4.62 µM in test [8], 5.83 µM in test [9] and 4.4 µM in test [10]. Besides, the TGI in test [1] stood at 3.63 µM; in [2] it was 17.8 µM; in [3], 6.82 µM; in test [4], 5.22 µM; in test [5], 7.25 µM; in test [6], 16.8 µM. For the same molecule, the TGI is 15.9 µM in test [7], 18.9 µM in test [8], 18.9 µM in test [9] and 23.2 µM in test [10].

`COc1ccc(OC)c(-c2c(C#N)c(N)nc(N3CCOCC3)c2C#N)c1`: the GI50 in test [1] was 61.4 µM; in test [2], 46 µM; in test [3], 39300 nM; in test [4] it was more than 100 µM; in test [5], 36300 nM; in [6], more than 100 µM. Also, the GI50 is more than 100 µM in test [7], 79.1 µM in test [8], more than 100 µM in test [9] and 85.6 µM in test [10]. Also, the TGI in test [1], in [2], in test [3], in [4], in [5] and in [6] was more than 100 µM throughout. The TGI in test [7], in test [8], in test [9] and in test [10] was more than 100 µM throughout.

As to `Nc1ncnc2c1nnn2C1CCC(CP(=O)(O)O)C1` (centres undefined), the TGI in test [1], in test [2], in [3], in test [4], in test [5] and in [6] was more than 100 µM in each case. In addition, the TGI in [7], in test [8], in [9] and in test [10] was more than 100 µM each time.

For the molecule `O=C(COc1ccc(/C=C2\Oc3ccccc3C2=O)cc1)Nc1nc2c(s1)CCCC2`, the GI50 in test [2] is 1.87 µM; in [3], 1830 nM; in [4] it was 17.4 µM; in test [5], 590 nM; in [6], 18.8 µM; in test [7], 0.417 µM. Also, the results for the GI50 in test [9] and in test [10] were 25.1 µM and 8.55 µM, respectively. The TGI in [2] was more than 49.5 µM; in test [3], 25.5 µM; in [4], more than 57.5 µM; in test [5], 2.44 µM; in [6] it was more than 100 µM; in test [7], 27.4 µM. Moreover, the TGI is more than 100 µM in [9] and 42 µM in test [10].

Regarding `O=C1c2ccccc2-c2c1c1ccccc1c(=O)n2CCN1CCOCC1`, the GI50 was 49 µM in test [1]; 64.4 µM in test [2]; 82200 nM in test [3]; 49 µM in test [4]; 25.8 µM in [6]; more than 100 µM in [7]. Further, the GI50 in [8] is 60.6 µM; in test [9], 78.5 µM; in test [10], 73.9 µM. The TGI in test [1] is more than 100 µM; in test [2], more than 100 µM; in [3] it was more than 100 µM; in test [4] it was more than 100 µM; in test [6], 73.5 µM; in test [7] it was more than 100 µM. Besides, the TGI in test [8], in test [9] and in [10] was more than 100 µM each time.

Regarding `CC1=C(CO)C(=O)O[C@@H]([C@@H](C)[C@H]2CC[C@H]3[C@@H]4C[C@@H](O)[C@@]5(O)CC=CC(=O)[C@]5(C)[C@H]4CC[C@]23C)C1`, the TGI was 68.6 µM in test [1]; more than 100 µM in [3]; more than 100 µM in [4]; more than 100 µM in test [6]; more than 100 µM in test [7]; more than 100 µM in [8]. Also, the figures for the TGI in [9] and in test [10] were 32.5 µM and more than 100 µM, respectively.

On to `N#Cc1c(-c2ccc(Cl)cc2)c2c(n(C3OC(CO)C(O)C(O)C3O)c1=S)CCC2` (centres undefined), for which the TGI in test [1] was 63.2 µM; in test [2], more than 100 µM; in [3], 74.3 µM; in test [4], 26 µM; in [5], more than 100 µM; in test [6], 38.5 µM. Further, the TGI in test [7] and in test [9] was more than 100 µM in each case.

On to `CCc1ccc(NC(=O)COC(=O)c2cc([N+](=O)[O-])ccc2Sc2nnnn2C)cc1`, for which the GI50 is 24 µM in test [1]; 24.9 µM in test [2]; 11700 nM in test [3]; 4.64 µM in test [4]; 4050 nM in test [5]; 9.4 µM in [6]. Also, the GI50 in test [7] is 4.9 µM; in test [9], 13 µM; in test [10] it was 17 µM. Besides, the TGI in [1] was 62 µM; in test [2] it was more than 100 µM; in test [3], 25.4 µM; in [4], 18 µM; in test [5], more than 100 µM; in test [6] it was 50.6 µM. Besides, the figures for the TGI in test [7], in [9] and in test [10] were 28.2 µM, 37.3 µM and 36.1 µM, respectively.

Consider `O=C(Nc1ccc(Cl)c(Cl)c1)O/N=C\c1c(Cl)ccc([N+](=O)[O-])c1Cl`, for which the GI50 in test [2] is 1.45 µM; in test [3], 1310 nM; in [4], 2.38 µM; in test [5], 878 nM; in test [6] it was 0.825 µM; in [7], 1.73 µM. Moreover, the GI50 in test [8] is 2.62 µM; in test [9] it was 1.2 µM; in [10] it was 3.06 µM. For the same molecule, the TGI in [2] stood at 2.88 µM; in test [3], 2.76 µM; in [4], 8.59 µM; in test [5], 5.04 µM; in test [6], 6.56 µM; in [7] it was 3.23 µM. The TGI in test [8] turned out to be 8.47 µM; in test [9], 3.48 µM; in test [10] it was 12.4 µM.

For the molecule `O=C(Nc1cccc(NC(=O)Nc2cc(C(F)(F)F)ccc2Cl)c1)Nc1cc(C(F)(F)F)ccc1Cl`, the GI50 was 2.49 µM in test [2]; 3.2 µM in test [4]; 2.17 µM in test [6]; 4.11 µM in [7]; 2.05 µM in test [8]; 0.566 µM in test [9]. Moreover, in test [10], the GI50 was 1.85 µM. In addition, the TGI in test [2] is 14.7 µM; in [4] it was 65.6 µM; in test [6] it was 44.7 µM; in test [7] it was 17.8 µM; in [8], 15.7 µM; in test [9], more than 100 µM. In addition, the TGI in test [10] worked out at 9.28 µM.

As to `CC1(C)C2C=CC1(C)C1(CC2)OCCO1` (centres undefined), the TGI in test [1], in [2], in test [3], in test [5], in [6] and in test [7] was more than 100 µM each time. The TGI in test [8], in test [9] and in test [10] was more than 100 µM throughout.

For the molecule `COc1ccc(/C=C2\S/C(=N/Nc3nc(-c4ccccc4)cs3)NC2=O)cc1OC`, the TGI is 52 µM in test [1]; 51.7 µM in test [2]; 55.8 µM in test [3]; 31.2 µM in [4]; more than 100 µM in test [7]; 47.5 µM in test [8]. Besides, in test [9], the TGI is 69 µM.

For the molecule `CCN(CC)Cc1ccc(Nc2nccc(-c3cnn4ncccc34)n2)cc1`, the GI50 in [1] is 0.0063 µM; in test [2] it was 0.0114 µM; in test [3], 11.5 nM; in test [4], 0.0419 µM; in test [5] it was 7.95 nM; in test [6], 0.0682 µM. In addition, the GI50 is 0.012 µM in [7], 0.0133 µM in test [8] and 0.0265 µM in test [9]. The TGI in test [1] is 0.0147 µM; in [2] it was more than 8.73 µM; in test [3] it was 0.106 µM; in test [4], 0.215 µM; in [6] it was more than 25 µM; in [7], more than 8.56 µM. The TGI in test [8] and in test [9] was more than 25 µM throughout.

`O=C(NN1C(=O)CSC12CCCC2)c1[nH]c2ccc(Br)cc2c1-c1ccccc1`: the GI50 was 31.2 µM in [1]; 59.1 µM in test [2]; 18800 nM in [3]; 63.9 µM in test [4]; 18.7 µM in test [6]; more than 100 µM in test [7]. Besides, the GI50 in [8] was 41 µM; in test [9], 43.2 µM; in test [10] it was more than 100 µM. Also, the TGI in test [1] is more than 100 µM; in [2], more than 100 µM; in test [3] it was 56.7 µM; in test [4], more than 100 µM; in [6], 43.2 µM; in test [7], more than 100 µM. The TGI in test [8], in test [9] and in test [10] was more than 100 µM each time.

On to `COc1cc(/C=C2\Sc3scc(-c4cccc([N+](=O)[O-])c4)[n+]3C2=O)cc(OC)c1OC`, for which the TGI in test [1] is 26.9 µM; in test [2], 19 µM; in [3] it was 44.8 µM; in test [4], 17.8 µM; in [5], 5.11 µM; in [6] it was more than 100 µM. Further, the values for the TGI in test [7], in test [8] and in [10] were 30.2 µM, more than 100 µM and 34.3 µM, respectively.

With `C=C1C(=O)OC2C1C(OC(=O)/C(C)=C/C)CC(O)(CCl)C1C(O)C3OC3(C)C21O` (centres undefined), the TGI in test [1] is 26 µM; in [3], more than 50 µM; in test [4] it was more than 50 µM; in test [5], more than 50 µM; in [6], more than 50 µM; in test [7], more than 50 µM. Further, the TGI in test [8] was 42.5 µM; in test [9], more than 50 µM; in [10], more than 50 µM.

For the molecule `COc1cc([C@H]2OC[C@H]3[C@@H]2CO[C@@H]3c2cc(OC)c3c(c2)OCO3)cc(OC)c1OC`, the TGI in test [2] is more than 100 µM; in test [3], more than 100 µM; in test [4], 48.7 µM; in test [5], more than 100 µM; in test [6], more than 100 µM; in test [7] it was more than 100 µM. In addition, the TGI in test [8], in [9] and in test [10] was more than 100 µM each time.

As for `NC(=O)c1c(NC(=O)c2ccc3c(c2)OCO3)sc2c1CCC(=O)C2`, the GI50 in test [1] is 1.88 µM; in test [4], 1.77 µM; in [5], 372 nM; in [6] it was 0.356 µM; in test [7], 4.5 µM; in test [8], 1.75 µM. Moreover, the TGI in [1] is 5.36 µM; in [4], 3.17 µM; in [5], more than 100 µM; in test [6], more than 100 µM; in test [7] it was more than 100 µM; in test [8], more than 100 µM.

`Cc1ccc(CNc2c3ccccc3nc3cc(NC(=O)CCN4CCCC4)ccc23)cc1`: the GI50 in test [1] is 0.414 µM; in [2] it was 1.25 µM; in test [3], 768 nM; in test [4], 1.54 µM; in test [5], 301 nM; in [7], 0.516 µM. Also, the GI50 in test [9] is 1.29 µM; in [10], 1.02 µM. Moreover, the TGI in [1] was 1.57 µM; in test [2] it was 2.54 µM; in [3], 2.11 µM; in test [4], 2.89 µM; in test [5], 1.82 µM; in test [7], 1.66 µM. The TGI was found to be 2.63 µM in [9] and 2.46 µM in test [10].

`C=C1C(=O)OC2/C=C(/C)C(OC(C)=O)CC(O)/C(C)=C\C(OC(=O)/C(C)=C\C)C12` (centres undefined): the TGI in [1], in test [3], in test [4], in [5], in test [6] and in test [7] was more than 100 µM throughout. Also, the TGI in [8], in test [9] and in test [10] was more than 100 µM each time.

For `CC1=C2C(=CC(C)(C)C2O)C(=O)C(C)(O)C12CC2` (centres undefined), the TGI in test [1] amounted to 0.0194 µM; in test [2], 0.0291 µM; in test [3], 0.0494 µM; in [4], 0.0219 µM; in [5] it was 0.128 µM; in test [6], 0.154 µM. The TGI in test [8] was determined as 0.0499 µM; in test [9] it was 0.151 µM; in test [10], 0.152 µM.
